Test results reported in PubChem BioAssay (NCI).
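How tested: cells in 96-well plates exposed to compound for 48 hours at five concentrations. GI50: concentration for 50% inhibition of growth. Definition used: TGI = concentration required for complete inhibition of growth.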

Experiments:
Assay in all cases: NCI anticancer screen, dose series, 48 h
HT29 colon = tested on: HT29 colon
KM20L2 colon = tested on: KM20L2 colon
DMS 114 small cell lung = tested on: DMS 114 small cell lung
K-562 leukemia = tested on: K-562 leukemia
HOP-18 NSCLC = tested on: HOP-18 NSCLC
A498 renal = tested on: A498 renal
SK-MEL-28 melanoma = tested on: SK-MEL-28 melanoma
MOLT-4 leukemia = tested on: MOLT-4 leukemia
HCC-2998 colon = tested on: HCC-2998 colon
786-0 renal = tested on: 786-0 renal
PC-3 prostate = tested on: PC-3 prostate
MDA-N = tested on: MDA-N

| SMILES | TGI (HT29 colon) | TGI (KM20L2 colon) | TGI (DMS 114 small cell lung) | TGI (K-562 leukemia) | TGI (HOP-18 NSCLC) | TGI (A498 renal) | TGI (SK-MEL-28 melanoma) | TGI (MOLT-4 leukemia) | TGI (HCC-2998 colon) | TGI (786-0 renal) | TGI (PC-3 prostate) | TGI (MDA-N) | GI50 (HT29 colon) | GI50 (K-562 leukemia) | GI50 (MOLT-4 leukemia) | GI50 (HCC-2998 colon) |
| --- | --- | --- | --- | --- | --- | --- | --- | --- | --- | --- | --- | --- | --- | --- | --- | --- |
| CCOC(=O)CC1(c2cccc3ccccc23)OC(=O)c2ccccc21 (configuration not stated) | > 100 µM | > 100 µM | > 100 µM | > 100 µM | > 100 µM | > 100 µM | > 100 µM | 82.4 µM | > 100 µM |  |  |  |  |  |  |  |
| c1csc(C[N+]23CN4CN(CN(C4)C2)C3)c1 | > 100 µM | 55.7 µM | 40.2 µM | 48.8 µM |  |  | > 100 µM | 44.6 µM | 34.1 µM | 58.8 µM |  |  |  |  |  |  |
| O=C(N/N=C(/COc1ccc([N+](=O)[O-])cc1)N=Cc1ccncc1)c1ccncc1 | > 100 µM |  |  | > 100 µM |  | > 100 µM | > 100 µM | > 100 µM | > 100 µM | > 100 µM | > 100 µM | > 100 µM |  |  |  |  |
| O=C(O)CC1NCc2cc3ccccc3nc21 (configuration not stated) | > 100 µM |  |  | > 100 µM |  | > 100 µM | > 100 µM | > 100 µM | > 100 µM | > 100 µM | > 100 µM | > 100 µM |  |  |  |  |
| O=c1[nH]nc(Cc2ccccc2)n1CCO | > 100 µM |  |  | > 100 µM |  | > 100 µM | > 100 µM | > 100 µM | > 100 µM | > 100 µM | > 100 µM | > 100 µM |  |  |  |  |
| CC(C)C(N)=O | > 5000 µM |  | > 5000 µM | > 5000 µM | > 5000 µM |  | > 5000 µM | > 5000 µM |  | > 5000 µM |  |  |  |  |  |  |
| Nc1ccc(C(=O)c2cn(CCN3CCOCC3)c3ccccc23)c2ccccc12 | 55.9 µM |  |  | 56.7 µM |  | > 100 µM | > 100 µM | 52.5 µM | > 100 µM | > 100 µM | > 100 µM | > 100 µM |  |  |  |  |
| COc1cc2c(=O)cnoc2cc1O | > 100 µM |  |  | > 100 µM |  | > 100 µM | > 100 µM | > 100 µM | > 100 µM | > 100 µM | > 100 µM | > 100 µM |  |  |  |  |
| C=C(OC1C(C)=C2C(C1OC(=O)CCCCCCC)C(C)(OC(C)=O)CC(OC(=O)CCC)C1(O)C2OC(=O)C1(C)O)/C(C)=C/C (configuration not stated) | 1.8 µM | 1.23 µM | 0.207 µM | 5.38 µM | 9.19 µM | 3.29 µM | 3.97 µM | 0.177 µM | 0.778 µM |  |  |  | < 0.0001 µM | < 0.0001 µM | 0.000402 µM | < 0.0001 µM |
| C=C1C(=O)O[C@@H]2C[C@]3(C)CC[C@]4(C)[C@H](CC[C@@H]5[C@@]6(C)CCC(=O)C(C)(C)[C@@H]6CC[C@]54C)[C@H]3[C@H]12 | > 56.7 µM |  |  | 16.7 µM |  | 35.3 µM | 38.4 µM | 5.76 µM | 33.7 µM | 30.2 µM | 35.4 µM | 30.9 µM |  |  |  |  |
| Cc1c2c(OCCN3CCCCC3)nn(C)c(=O)c2c(C)n1-c1ccccc1 | > 100 µM |  |  | > 100 µM |  | 36.9 µM | 84.7 µM | > 100 µM | 65.3 µM | 36.7 µM | > 100 µM | > 100 µM |  |  |  |  |
| CCCCON1C[C@H](OC(C)=O)C(OC(C)=O)[C@H](OC(C)=O)C1 (some centres not stated) | > 100 µM |  |  | > 100 µM |  | > 100 µM | > 100 µM | > 100 µM | > 100 µM | > 100 µM | > 100 µM | > 100 µM |  |  |  |  |
| Cc1ccc2oc(=O)c(C(=O)Nc3nc(C45CC6CC(CC(C6)C4)C5)cs3)cc2c1 | > 100 µM |  |  | > 100 µM |  | > 100 µM | > 100 µM | > 100 µM | > 100 µM | > 100 µM | > 100 µM | > 100 µM |  |  |  |  |
| CC(=O)OCC1OC(Oc2cc(C)c(O)cc2C/C=C(\C)CC/C=C(\C)CC(=O)CC(C)C)C(O)C(OC(C)=O)C1OC(C)=O (configuration not stated) | 12.5 µM |  |  | 23.2 µM |  | 27.6 µM | > 50 µM | 19.5 µM | 24.5 µM | > 50 µM | > 50 µM | > 50 µM |  |  |  |  |
